pIC50: −log10 of the molar value. Like-named read-outs stand apart in the source and are kept apart here.
What was measured:
[1] = molecular target: glucosylceramide synthase (GCS) (Homo sapiens (Human), UniProt Q16739); test: Evaluation of inhibitory activities against GCS (A549 cell lysate, NBD C6-ceramide, HPLC); assay type: biochemical
Description: The inhibitory activities of the compounds of the present invention against GCS were evaluated, as follows, according to the method described in the known literature (Hayashi Y et al., A sensitive and reproducible assay to measure the activity of glucosylceramide synthase and lactosylceramide synthase using HPLC and fluorescent substrates, Analytical Biochemistry 345 (2005) 181-186). Ibiglustat, known as a GCS inhibitor, was used as a control.
After the cells attached to the culture dish were washed with phosphate buffered saline (PBS), the cells were scraped off with a cell scraper and then centrifuged (4000 rpm, 3 min, 4 °C) to collect the cells in a 50 ml tube. The cell pellets were suspended in a lysis buffer (50 mM HEPES, pH 7.3, containing 1× the protease/phosphatase inhibitor cocktail), lysed by sonication, and then the lysate was centrifuged (13000 rpm, 10 min, 4° C.). The obtained supernatant was used for the quantitative analysis of proteins. The amount of proteins was measured using the BCA protein assay kit, using bovine serum albumin as a standard.
Enzymatic reactions were initiated by sequentially adding the following reaction materials to a 96 deep-well plate. Thereafter, the enzymatic reactions were performed at 37° C. for 90 minutes.
The enzymatic reactions were stopped by adding 100 μl of chloroform/methanol (2:1, v/v). […] The lower layer (50 μl) was transferred to a new 96 deep-well plate and dried with a reduced concentrator.
Lipids were dissolved in 100 μl of isopropyl alcohol/n-hexane/H2O (55:44:1, v/v/v) and then transferred to a glass vial for HPLC (Agilent, 8004-HP-H/i3u). The sample (100 μl) was automatically loaded onto a normal-phase column (Intersil SIL 150A-5, 4.6×250 mm, GL Sciences, Japan) and then eluted at a flow rate of 2.0 ml/min with isopropyl alcohol/n-hexane/H2O (55:44:1, v/v/v). The fluorescence thereof was measured with a fluorescence detector (Agilent, 1260 FLD Spectra), using 470 nm and 530 nm as excitation and emission wavelengths, respectively.
Data analysis was performed by the following equations.
% Area (Sample)=Area (GlcCer)/[Area (Cer)+Area (GlcCer)]×100%
GCS activity=[Area (Sample)−Area (ibiglustat)]/[Area (DMSO)−Area (ibiglustat)]×100
The obtained % GCS activity data was analyzed with the software GraphPad Prism (Ver 5.01) to calculate the IC50 values.

[2] = test system: GM1 production in Jurkat cells; test: cells; assay type: cell-based
[3] = % GCS activity, A549 cell lysate, 37° C. for 90 minutes, read-out: IC50

glucosylceramide synthase (GCS), sequence (Q16739 whole entry): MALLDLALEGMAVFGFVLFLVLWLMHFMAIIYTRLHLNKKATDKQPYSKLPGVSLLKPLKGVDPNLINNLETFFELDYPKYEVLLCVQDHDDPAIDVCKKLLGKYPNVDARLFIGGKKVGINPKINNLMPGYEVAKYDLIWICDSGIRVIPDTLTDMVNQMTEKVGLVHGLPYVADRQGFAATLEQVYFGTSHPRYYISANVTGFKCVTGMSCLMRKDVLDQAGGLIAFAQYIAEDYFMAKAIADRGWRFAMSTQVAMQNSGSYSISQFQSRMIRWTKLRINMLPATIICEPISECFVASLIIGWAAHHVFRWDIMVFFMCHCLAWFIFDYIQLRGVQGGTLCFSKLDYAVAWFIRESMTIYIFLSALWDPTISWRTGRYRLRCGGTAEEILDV

Compound | pIC50 [1] | pIC50 ([2]; Homo sapiens, Jurkat, 72 h) | pIC50 [1, 3] | pIC50 ([2]; read-out: IC50)
CC(C)Oc1cc(F)cc(-c2ccc3c(c2)CC(C)(C)[C@H]3NC(=O)O[C@@H]2CN3CCC2CC3)c1 [Example 49, (S)-quinuclidin-3-yl((R)-5-(3-fluoro-5-isopropoxyphenyl)-2,2-dimethyl-2,3-dihydro-1H-inden-1-yl)carbamate] | 9.24 | 8.03 |  | 
CC(C)Cc1cccc(-c2ccc3c(c2)CCC(C)(C)[C@H]3NC(=O)O[C@@H]2CN3CCC2CC3)c1 [Example 157, (S)-quinuclidin-3-yl((R)-6-(3-isobutylphenyl)-2,2-dimethyl-1,2,3,4-tetrahydronaphthalen-1-yl)carbamate] | 9.09 | 8.58 |  | 
CCCOc1ccc(-c2cc3c(cc2C)[C@H](NC(=O)O[C@@H]2CN4CCC2CC4)C(C)(C)C3)cc1 [Example 121, (S)-quinuclidin-3-yl((R)-2,2,6-trimethyl-5-(4-propoxyphenyl)-2,3-dihydro-1H-inden-1-yl)carbamate] | 9.55 | 8.55 |  | 
CCOc1cc2c(cc1-c1ccc(OC(C)C)cc1)CC(C)(C)[C@H]2NC(=O)O[C@@H]1CN2CCC1CC2 [Example 134, (S)-quinuclidin-3-yl((R)-6-ethoxy-5-(4-isopropoxyphenyl)-2,2-dimethyl-2,3-dihydro-1H-inden-1-yl)carbamate] | 9.15 | 8.42 |  | 
Cc1cc(-c2cc3c(cc2F)[C@H](NC(=O)O[C@@H]2CN4CCC2CC4)C(C)(C)C3)ccc1OC(F)F [Example 107, (S)-quinuclidin-3-yl((R)-5-(4-(difluoromethoxy)-3-methylphenyl)-6-fluoro-2,2-dimethyl-2,3-dihydro-1H-inden-1-yl)carbamate] | 9.03 | 7.80 |  | 
CC(C)Oc1cc(Cl)cc(-c2ccc3c(c2)CC(C)(C)[C@H]3NC(=O)O[C@@H]2CN3CCC2CC3)c1 [Example 54, (S)-quinuclidin-3-yl((R)-5-(3-chloro-5-isopropoxyphenyl)-2,2-dimethyl-2,3-dihydro-1H-inden-1-yl)carbamate] | 9.23 | 8.07 |  | 
COc1cccc(-c2ccc3c(c2)CCC(C)(C)[C@H]3NC(=O)O[C@@H]2CN3CCC2CC3)c1 [Example 153, (S)-quinuclidin-3-yl((R)-6-(3-methoxyphenyl)-2,2-dimethyl-1,2,3,4-tetrahydronaphthalen-1-yl)carbamate] | 9.49 | 8.68 |  | 
CCCCOc1cccc(-c2cc3c(cc2F)[C@H](NC(=O)O[C@@H]2CN4CCC2CC4)C(C)(C)CC3)c1 [Example 186, (S)-quinuclidin-3-yl((R)-6-(3-butoxyphenyl)-7-fluoro-2,2-dimethyl-1,2,3,4-tetrahydronaphthalen-1-yl)carbamate] | 9.34 | 9.15 |  | 
CCCOc1ccc(-c2ccc3c(c2)CCC(C)(C)[C@H]3NC(=O)O[C@@H]2CN3CCC2CC3)cc1 [Example 144, (S)-quinuclidin-3-yl((R)-2,2-dimethyl-6-(4-propoxyphenyl)-1,2,3,4-tetrahydronaphthalen-1-yl) carbamate] |  |  | 9.38 | 8.64
Cc1cc2c(cc1-c1ccc(C(C)C)cc1)CC(C)(C)[C@H]2NC(=O)O[C@@H]1CN2CCC1CC2 [Example 117, (S)-quinuclidin-3-yl((R)-5-(4-isopropylphenyl)-2,2,6-trimethyl-2,3-dihydro-1H-inden-1-yl)carbamate] | 9.33 | 8.35 |  | 
COc1ccc(-c2cc3c(cc2F)[C@H](NC(=O)O[C@@H]2CN4CCC2CC4)C(C)(C)C3)cc1Cl [Example 85, (S)-quinuclidin-3-yl((R)-5-(3-chloro-4-methoxyphenyl)-6-fluoro-2,2-dimethyl-2,3-dihydro-1H-inden-1-yl)carbamate] | 9.09 | 7.18 |  | 
CC(C)Oc1cc(F)cc(-c2cc3c(cc2F)[C@H](NC(=O)O[C@@H]2CN4CCC2CC4)C(C)(C)C3)c1 [Example 108, (S)-quinuclidin-3-yl((R)-6-fluoro-5-(3-fluoro-5-isopropoxyphenyl)-2,2-dimethyl-2,3-dihydro-1H-inden-1-yl)carbamate] | 8.97 | 7.50 |  | 
Cc1cc2c(cc1-c1ccc(CC(C)C)cc1)CC(C)(C)[C@H]2NC(=O)O[C@@H]1CN2CCC1CC2 [Example 119, (S)-quinuclidin-3-yl((R)-5-(4-isobutylphenyl)-2,2,6-trimethyl-2,3-dihydro-1H-inden-1-yl)carbamate] | 9.64 | 8.31 |  | 
CC1(C)Cc2cc(-c3cc(F)cc(OCC(F)(F)F)c3)c(F)cc2[C@@H]1NC(=O)O[C@@H]1CN2CCC1CC2 [Example 110, (S)-quinuclidin-3-yl((R)-6-fluoro-5-(3-fluoro-5-(2,2,2-trifluoroethoxy)phenyl)-2,2-dimethyl-2,3-dihydro-1H-inden-1-yl)carbamate] | 8.98 | 7.55 |  | 
CCCCc1ccc(-c2cc3c(cc2OCC)[C@H](NC(=O)O[C@@H]2CN4CCC2CC4)C(C)(C)C3)cc1 [Example 130, (S)-quinuclidin-3-yl((R)-5-(4-butylphenyl)-6-ethoxy-2,2-dimethyl-2,3-dihydro-1H-inden-1-yl)carbamate] | 9.12 | 8.82 |  | 
CCCc1ccc(-c2cc3c(cc2OCC)[C@H](NC(=O)O[C@@H]2CN4CCC2CC4)C(C)(C)C3)cc1 [Example 128, (S)-quinuclidin-3-yl((R)-6-ethoxy-2,2-dimethyl-5-(4-propylphenyl)-2,3-dihydro-1H-inden-1-yl)carbamate] | 8.74 | 8.19 |  | 
CC(C)Cc1ccc(-c2ccc3c(c2)CCC(C)(C)[C@H]3NC(=O)O[C@@H]2CN3CCC2CC3)cc1 [Example 160, (S)-quinuclidin-3-yl((R)-6-(4-isobutylphenyl)-2,2-dimethyl-1,2,3,4-tetrahydronaphthalen-1-yl)carbamate] | 8.30 | 8.52 |  | 
CCCc1ccc(-c2cc3c(cc2C)[C@H](NC(=O)O[C@@H]2CN4CCC2CC4)C(C)(C)C3)cc1 [Example 116, (S)-quinuclidin-3-yl((R)-2,2,6-trimethyl-5-(4-propylphenyl)-2,3-dihydro-1H-inden-1-yl)carbamate] | 9.51 | 8.42 |  | 
CCc1ccc(-c2cc3c(cc2C)[C@H](NC(=O)O[C@@H]2CN4CCC2CC4)C(C)(C)C3)cc1 [Example 115, (S)-quinuclidin-3-yl((R)-5-(4-ethylphenyl)-2,2,6-trimethyl-2,3-dihydro-1H-inden-1-yl)carbamate] | 9.37 | 8.29 |  | 
Cc1cc(-c2ccc3c(c2)CC(C)(C)[C@H]3NC(=O)O[C@@H]2CN3CCC2CC3)ccc1OC(F)F [Example 48, (S)-quinuclidin-3-yl((R)-5-(4-(difluoromethoxy)-3-methylphenyl)-2,2-dimethyl-2,3-dihydro-1H-inden-1-yl)carbamate] | 8.89 | 7.86 |  | 
CC(C)Oc1cc(Cl)cc(-c2cc3c(cc2F)[C@H](NC(=O)O[C@@H]2CN4CCC2CC4)C(C)(C)C3)c1 [Example 113, (S)-quinuclidin-3-yl((R)-5-(3-chloro-5-isopropoxyphenyl)-6-fluoro-2,2-dimethyl-2,3-dihydro-1H-inden-1-yl)carbamate] | 9.21 | 7.94 |  | 
Cc1cc2c(cc1-c1ccc(OCC(C)C)cc1)CC(C)(C)[C@H]2NC(=O)O[C@@H]1CN2CCC1CC2 [Example 124, (S)-quinuclidin-3-yl((R)-5-(4-isobutoxyphenyl)-2,2,6-trimethyl-2,3-dihydro-1H-inden-1-yl)carbamate] | 9.70 | 8.95 |  | 
CCOc1ccc(-c2cc3c(cc2C)[C@H](NC(=O)O[C@@H]2CN4CCC2CC4)C(C)(C)C3)cc1 [Example 120, (S)-quinuclidin-3-yl((R)-5-(4-ethoxyphenyl)-2,2,6-trimethyl-2,3-dihydro-1H-inden-1-yl)carbamate] | 9.51 | 8.12 |  | 
CCCCOc1cccc(-c2ccc3c(c2)CCC(C)(C)[C@H]3NC(=O)O[C@@H]2CN3CCC2CC3)c1 [Example 155, (S)-quinuclidin-3-yl((R)-6-(3-butoxyphenyl)-2,2-dimethyl-1,2,3,4-tetrahydronaphthalen-1-yl)carbamate] | 9.41 | 9.15 |  | 
Cc1cc(-c2ccc3c(c2)CCC(C)(C)[C@H]3NC(=O)O[C@@H]2CN3CCC2CC3)cc(C)c1OC(C)C [Example 149, (S)-quinuclidin-3-yl((R)-6-(4-isopropoxy-3,5-dimethylphenyl)-2,2-dimethyl-1,2,3,4-tetrahydronaphthalen-1-yl) carbamate] |  |  | 8.75 | 7.84

From patent US20240262819A1, “NOVEL COMPOUNDS HAVING INHIBITORY ACTIVITY AGAINST GLUCOSYLCERAMIDE SYNTHASE OR PHARMACEUTICALLY ACCEPTABLE SALT THEREOF, PROCESSES FOR PREPARING THE SAME, AND PHARMACEUTICAL COMPOSITIONS COMPRISING THE SAME” (YUHAN CORPORATION, priority 2021, published 2024)
